pIC50: −log10 of the molar value. Where a name gives a salt, the structure may show the parent alone.

This experiment has as its target muscarinic receptors. As to the kind of experiment: Inhibition of ^3 H-oxotremorine-M binding to muscarinic receptors. The arrangement: species or system rat (male Sprague-Dawley, cerebral cortex). To be noted: 3 nM ^3 H-oxotremorine-M, rat cerebral cortical membranes, 15 min, 25° C., pH 7.4; concentration to inhibit specific binding 50%; read-out: Inhibition of ^3 H-Oxo. The method, then:
The affinity of the compounds for the muscarinic receptors was determined using the non-selective agonist ligand, ^3 H-oxotremorine-M. Birdsdall N. J. M., Hulme E. C., and Burgen A. S. V., "The Character of Muscarinic Receptors in Different Regions of the Rat Brain", 207 Proc. Roy. Soc. 1 (London, Series B, 1980). Each compound was tested to determine the affinity of the compound for the muscarinic receptors using the following procedure.
For each in vitro binding, male Sprague-Dawley (Harlan Sprague-Dawley, Indianapolis, Ind.) rats weighing from about 100 to about 150 grams each were sacrificed by decapitation. The brains were quickly removed and the cerebral cortex were dissected from the brain. The cerebral cortex tissue was homogenized in 10 volumes of 0.32M sucrose and homogenized for about 10 minutes at about 1000×g. […]
The aforementioned homogenates mixture was incubated for about 15 minutes at about 25° C. and then the homogenates were filtered through glass filters (Whatman, GF/C) with vacuum. The filters were washed 3 times with about 2 ml of cold tris-Cl buffer, and placed in scintillation vials containing about 10 ml of scintillation fluid (Ready Protein+, Beckman, Fullerton, Calif.). Radioactivity trapped on the filters was determined by liquid scintillation spectrometry. Nonspecific binding was determined using 1 μM atropine. […]

As to `C=CCCCCOc1nsnc1C1=CCCN(C)C1` [Compound 33, 3-(3-(5-Hexenyloxy)-1,2,5-thiadiazol-4-yl)-1,2,5,6-tetrahydro-1-methylpyridine oxalate], the pIC50 is 8.57.
